The values below come from patent publication US7223733B2, “Modulation of TRIP-Br function and method of treating proliferative disorders” (National University of Singapore, priority 2004, dated 2007).

Where no end group is shown, it is not given here. [invdT] = inverted (3'-3') thymidine

What all share (format): cell-based, human
For data set [1], the system named is CNE2 (nasal pharyngeal carcinoma). Put plainly: Anti-proliferative phenotypes in CNE2 cells. Conditions: data not shown.
For a further data set, the system named is PARP cleavage. Put plainly: Western blot analysis of PARP cleavage in U2OS cells. The note with it: 50 μM decoy peptides, 72 h. Here is the method: Denaturing SDS-PAGE and western blotting. Proteins from whole cell lysate and IP complexes were separated using standard denaturing polyacrylamide gel electrophoresis as described previously (Hsu, S. I. H., et al. EMBO J 20, 2273-2285 (2001)).
FIG. 6: Caspase assay. (A) Caspase 3 protease activity in U2OS cells exposed to either Eto (Etoposide) for 24 h or 50 μM decoy peptides for 48 or 72 h, were assayed using the Ac-DEVD-AFC fluorogenic substrate. […] Values represent the average +/− standard deviation of two independent experiments. Control: cells cultured in normal growth medium; Vehicle: cells cultured in the presence of 0.5% DMSO; (B) Western blot analysis of PARP cleavage. U2OS cells were exposed to either Eto (Etoposide) for 24 h or 50 μM decoy peptides for 72 h. Lane 1: Vehicle cells (cultured in the presence of 0.5% DMSO for 24 h); Lane 2: 25 μM Eto; Lane 3: 250 μM Eto; Lane 4: Vehicle (cells cultured in the presence of 0.5% DMSO for 72 h); Lane 5: *SCR; Lane 6: *Br1; Lane 7: *Br2.
On the technique in general: Immunoblotting shows a protein as a band on a membrane.

In the next data set the test system is Geminin. Put plainly: Protein decay analysis of Geminin in U2OS cells (cycloheximide). Conditions: for Geminin steady state levels at 5-h post-CHX treatment: cycloheximide; for Geminin protein decay kinetics: cycloheximide 20 μg/ml, 0-5 h. Here is the method:
Protein decay analysis. Transfected or peptide-treated cells were exposed to 20 μg/ml cycloheximide (CHX). Whole cell lysates were prepared from the treated cells at 0, 1, 2, 3, 4 or 5-h post-CHX treatment for Western blot analysis. FIG. 7: Cell cycle protein expression profile and protein decay analysis. (A) Protein expression profile of U2OS cells released from nocodazole arrest in the absence or presence of decoy peptide treatment. Protein expression of various cyclins and Cdks was assessed by Western blotting using whole cell lysates from synchronized U2OS cells at 4, 8, 12, 16, 20 and 24 h after release. Coomassie-stained proteins served as loading controls; (B) U2OS cells transfected with vector backbone (vehicle) or pRc/cyclin E and pCMV/Cdk2 (1 μg each), were arrested at the G2/M boundary by exposure to nocodazole (75 ng/ml) and then released to re-enter the cell cycle. Protein expression of cyclin E and Geminin was assessed using whole cell lysates from synchronized U2OS cells at 0, 4, 8, 12, 16 and 20 h after release; (C) Protein decay analysis of Geminin expression in the absence or presence of cyclin E/Cdk2 over-expression (left panel) or in the absence or presence of decoy peptide treatment (right panel) by Western blotting (WB). Coomassie stained proteins served as the loading control (C).

Data set [2] deals with WI-38 cells. Description: BrdU incorporation, E2F1/DP1 and cyclin E/Cdk2-induced S phase entry of quiescent WI-38 cells. The note with it: quiescent WI-38, 0.1 μM. As to the method: (§1) Cell proliferation assays. For the BrdU incorporation assays, growth-quiescent WI-38 cells in 96-well dishes were transfected with DNA enzyme and/or 100 ng of pCMV/E2F1, pCMV/DP1, pRSV/Cyclin E, or pCMV/Cdk2 and then exposed to Bromodeoxyuridine (BrdU, 100 μM) in the presence or absence of 10% FBS for 20 h. Bromodeoxyuridine (BrdU) incorporation was monitored with a calorimetric ELISA assay using a cell proliferation kit according to manufacturer's recommendations (Boehringer Mannheim). For manual cell count, growth-quiescent WI-38 cells in 24-well dishes were transfected with DNA enzyme and then exposed to 10% FBS for 72 h. The cells were rinsed with PBS, pH 7.4, and trypsinized, and 10 μl of cell suspension was taken from each sample and mixed with equal volume of trypan blue stain (Sigma, 0.4% w/v in 1×PBS). The number of unstained cells was enumerated manually using a hemocytometer. For colony formation assays, growth-quiescent WI-38 cells in 12-well dishes were transfected with DNA enzyme and then exposed to 10% FBS for 120 h. Cells were stained in situ with crystal violet (0.75% w/v hexamethyl-p-rosaniline chloride [SIGMA], 50% ethanol, 1.75% w/v paraformaldehyde, 0.25% w/v NaCl) for 10 min, and then rinsed thoroughly with deionized water to remove excess stains.
FIG. 13: (A) E-Br1 or E-Br2 suppresses serum-inducible S phase entry. […]
In general terms: Dividing cells build labelled thymidine or BrdU into new DNA.

For data set [3], the system named is WI-38 cells. Put plainly: BrdU incorporation, serum-induced S phase entry of WI-38 cells. Conditions: WI-38, 0.1 μM, 20 h; compared to unstimulated cells. Here is the method:
DNA enzyme transfection. WI-38 cells were rendered quiescent by cultivation in serum-free medium for 72 h before being transfected with DNA enzyme (0.1 μM) using Superfect as reported previously (Santiago, F. S., et al. Nat Med 5, 1264-1269 (1999)) in accordance to manufacturer's recommendations (Qiagen).
as §1
FIG. 13: (A) E-Br1 or E-Br2 suppresses serum-inducible S phase entry. Sub-confluent WI-38 cells were serum-starved for 72 h. Following DNA enzyme transfection, the cultures were re-stimulated with serum and allowed to proliferate in BrdU labeling medium. After 20 h, cells were assayed for BrdU incorporation with a colorimetric ELISA assay. Values represent the average of at least two independent experiments. […] Sub-confluent WI-38 cells were serum-starved for 72 h. […]

With “ERQIKIWFQNRRMKWKKTGFLTDLTLDDILFADID (ERQIKIWFQNRRMKWKKTGFLTDLTLDDILFADID-NH2) [*Br2]”, the “response of CNE2 cells” value in data set [1] is “in manners similar to those exhibited by U2OS cells”. In addition, in the data set with PARP cleavage, the “PARP cleavage compared to vehicle or *SCR-treated control” value is “not associated with significant PARP cleavage”. Further, in the data set on Geminin, the “Geminin steady state levels at 5-h post-CHX treatment” value is reported as “remained persistently high” and the “Geminin protein decay kinetics” value was “significantly slower decay rate”.
As for “5′-T TACCCAACAGGCTAGCTACAACGAATATCACA-3′ (DNA TTACCCAACAGGCTAGCTACAACGAATATCACA; DNA, 3' [invdT], backbone not given here) [E-Br2]”, the “S phase entry induced by co-expression of E2F1/DP1 and cyclin E/Cdk2” value with WI-38 cells [2] is given as “does not influence”. For the same substance, in the data set on WI-38 cells [3], the “BrdU incorporation on serum stimulation” value is “significantly inhibited”.
With “ERQIKIWFQNRRMKWKKATGCLLDDGLEGLFEDID (ERQIKIWFQNRRMKWKKATGCLLDDGLEGLFEDID-NH2) [*Br1]”, in data set [1], the “response of CNE2 cells” value is recorded as “in manners similar to those exhibited by U2OS cells”. Also, the “PARP cleavage compared to vehicle or *SCR-treated control” value with PARP cleavage is recorded as “not associated with significant PARP cleavage”. For the same substance, in the data set on Geminin, the “Geminin steady state levels at 5-h post-CHX treatment” value is “remained persistently high” and the “Geminin protein decay kinetics” value was “significantly slower decay rate”.
For the substance “5′-T TGCTCAGCAGGCTAGCTACAACGACTTGCTCA-3′ (DNA TTGCTCAGCAGGCTAGCTACAACGACTTGCTCA; DNA, 3' [invdT], backbone not given here) [E-Br1]”, the “S phase entry induced by co-expression of E2F1/DP1 and cyclin E/Cdk2” value with WI-38 cells [2] was “does not influence”. In addition, the “BrdU incorporation on serum stimulation” value with WI-38 cells [3] was “significantly inhibited”.
